Measurements: patent US11135200B2, “Antimicrobial drug synthesis and therapeutic compositions” (priority 2014, dated 2021)
Read-outs that look alike come from different tables or passages of the source.

Columns and labels:
[1] = Pharmacokinetics after administration of rac-ornidazole in a formulation; assay type: in vivo, human; conditions: for AUC of the component compared with rac-ornidazole / T1/2 of the component compared with rac-ornidazole: after a single administration of rac-ornidazole
prothrombin time = test: Effect on prothrombin time; conditions: relative to the Ornidazole racemic mixture

SMILES | AUC of the component compared with rac-ornidazole [1] | T1/2 of the component compared with rac-ornidazole [1] | effect on prothrombin time (prothrombin time) | half-life ([1]; human, in vivo, after a single administration of rac-ornidazole in a formulation, read-out: elimination half-life (T1/2)) [h] | Tmax ([1]; human, in vivo, after administration of rac-Ornidazole in a formulation) [h] | half-life ([1]; human, in vivo, after oral administration, read-out: terminal elimination half-life) [h] | Cmax ([1]; human, in vivo, after single administration of rac-ornidazole in a formulation) [ng/mL]
Cc1ncc([N+](=O)[O-])n1C[C@@H](O)CCl [(R)-ornidazole] | similar | similar | diminished effect on prothrombin time | – | – | – | –
Cc1ncc([N+](=O)[O-])n1CC(O)CCl (racemic) [(rac)-ornidazole, 1-chloro-3-(2-methyl-5-nitro-1H-imidazol-1-yl)propan-2-ol, reference compound] | – | – | – | 14 to 18 | 2 to 4 | 14 to 18 | 9000 to 31500
Cc1ncc([N+](=O)[O-])n1C[C@H](O)CCl [(S)-ornidazole] | similar | similar | diminished effect on prothrombin time | – | – | – | –
